Measurements published in patent US20050261298A1, “Methods of treating conditions associated with an Edg-7 receptor” (priority 2002, published 2005).

Assays:
Edg-1 = target: T1, Edg-1 (Homo sapiens, UniProt P21453); assay: Calcium mobilization assay (FLIPR), inhibition of S1P-stimulated calcium increase; format: cell-based; details: HTC cells expressing Edg-1
T1 construct: expressed in transfected cells; host or cells: HTC rat hepatoma cells

Edg-3 = target: T2, Edg-3 (Homo sapiens, UniProt Q99500); assay: as above; format: cell-based; details: HTC cells expressing Edg-3
T2 construct: expressed in transfected cells; host or cells: HTC rat hepatoma cells
T2 sequence (Q99500 whole entry): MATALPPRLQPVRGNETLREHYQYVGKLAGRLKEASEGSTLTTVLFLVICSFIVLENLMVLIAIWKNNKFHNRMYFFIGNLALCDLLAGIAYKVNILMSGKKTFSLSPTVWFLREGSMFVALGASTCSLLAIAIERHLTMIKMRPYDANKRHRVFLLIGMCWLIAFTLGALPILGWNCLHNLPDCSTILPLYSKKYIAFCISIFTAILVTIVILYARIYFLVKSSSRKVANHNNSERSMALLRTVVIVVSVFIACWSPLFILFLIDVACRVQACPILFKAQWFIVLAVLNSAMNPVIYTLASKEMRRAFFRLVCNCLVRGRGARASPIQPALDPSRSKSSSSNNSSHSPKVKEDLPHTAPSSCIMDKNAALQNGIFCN

human Edg 7 receptors = target: T3, human Edg 7 receptors (Homo sapiens, UniProt Q9UBY5); assay: Calcium mobilization assay (FLIPR), inhibition of LPA response; format: cell-based
T3 construct: expressed in transfected cells
T3 sequence (Q9UBY5 1-353): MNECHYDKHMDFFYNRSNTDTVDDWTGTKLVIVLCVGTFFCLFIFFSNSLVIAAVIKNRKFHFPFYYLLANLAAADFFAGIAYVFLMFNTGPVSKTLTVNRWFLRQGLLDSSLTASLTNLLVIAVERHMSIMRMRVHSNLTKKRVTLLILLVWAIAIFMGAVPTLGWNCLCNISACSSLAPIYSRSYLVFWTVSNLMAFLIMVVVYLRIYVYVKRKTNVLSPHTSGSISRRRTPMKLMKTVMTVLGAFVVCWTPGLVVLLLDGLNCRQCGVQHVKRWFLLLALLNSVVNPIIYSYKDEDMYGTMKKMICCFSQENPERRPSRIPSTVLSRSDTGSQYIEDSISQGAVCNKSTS
Method: The compounds were tested in HTC cells expressing human Edg 7 receptors. […] The compounds are tested in this recombinant system first, and subsequently tested in cell lines expressing Edg-7 (in addition to other Edg receptors).
The radioligand binding assays were conducted as described in Section 6.15 (Example 15).
LPA receptors such as Edg-7, couple to calcium effector pathways, and result in increases in intracellular calcium following receptor activation (An, 1998, J. Cell. Biochem Supp. 30-31:147-157). This biological response lends itself to a very efficient, high-throughput screen using a Fluorescence Imaging Plate Reader (FLIPR; Molecular Devices, Sunnyvale, Calif.). The FLIPR system is a real-time, cell-based assay system with continuous fluorescence detection using a cooled CCD camera. The FLIPR system was used to developing an Edg-7 receptor screen. Rat hepatoma cells stably expressing Edg-7 receptor were plated on 384-well plates and loaded with a calcium dye loading kit (Molecular Devices, Sunnyvale, Calif.) for 1 hour at room temperature. Cells were then placed on the FLIPR^384 (Molecular Devices, Sunnyvale, Calif.) and excited by an argon laser at […]. The data for the entire 384-well plate was updated every second. An integrated robotic pipettor allowed for simultaneous compound addition into each individual well in the plate

[1] = test system: Adrenergic α1, Non-Selective; assay: Radioligand binding assay, 3H Prazosin; parameters: species or system Wistar Rat; details: significance criteria ≧50% of max stimulation or inhibition
Method: (§1) In order to test the selectivity of compounds, various enzyme assays as well as radioligand binding assays were performed using numerous non-Edg receptor targets as listed below.
(§2) A radioligand binding assay was performed using adrenergic α1 according to the method of Greengrass and Bremner 1979, Eur. J. Pharmacol. 55:323-326. A radioligand binding assay was performed using adrenergic α2 according to the method of Boyajian and Leslie, 1987, J. Pharmacol. Exp. Ther. 241:1092-1098. A radioligand binding assay was performed using adrenergic β according to the method of Feve et al., 1994, Proc. Natl. Acad. Sci. USA 91:5677-5681. A radioligand binding assay was performed using angiotensin AT2 according to the method of Whitebread et al., 1991, Biochem. Biophys. Res. Comm. 181:1365-1371. A radioligand binding assay was performed using calcium channel Type L, dihydropyridine according to the method of Ehlert et al., 1982, Life Sci. 30:2191-2202. A radioligand binding assay was performed using dopamine D2L according to the method of Bunzo et al., 1988, Nature 336:783-787. A radioligand binding assay was performed using endothelin ETA according to the method of Mihara et al., 1994, J. Pharmacol. Exp Ther. 268:1122-1127. A radioligand binding assay was performed using histamine H1 Central according to the method of Hill et al., 1978, J. Neurochem. 31:997-1004. […]

Adrenergic α2 = assay: Radioligand binding assay, 3H Rauwolscine; parameters: species or system Wistar rat; details: significance criteria ≧50% of max stimulation or inhibition
Method: as §1, §2

[2] = test system: Calcium Channel Type L, Dihydropyridine; assay: Radioligand binding assay, 3H Nitrendipine; parameters: species or system Wistar Rat; details: significance criteria ≧50% of max stimulation or inhibition
Method: as §1, §2

Dopamine D2L = target: T4, Dopamine D2L (Homo sapiens, UniProt P14416); assay: Radioligand binding assay, 3H Spiperone; details: significance criteria ≧50% of max stimulation or inhibition
T4 construct: expressed in transfected cells; host or cells: CHO cells
T4 sequence (P14416 whole entry): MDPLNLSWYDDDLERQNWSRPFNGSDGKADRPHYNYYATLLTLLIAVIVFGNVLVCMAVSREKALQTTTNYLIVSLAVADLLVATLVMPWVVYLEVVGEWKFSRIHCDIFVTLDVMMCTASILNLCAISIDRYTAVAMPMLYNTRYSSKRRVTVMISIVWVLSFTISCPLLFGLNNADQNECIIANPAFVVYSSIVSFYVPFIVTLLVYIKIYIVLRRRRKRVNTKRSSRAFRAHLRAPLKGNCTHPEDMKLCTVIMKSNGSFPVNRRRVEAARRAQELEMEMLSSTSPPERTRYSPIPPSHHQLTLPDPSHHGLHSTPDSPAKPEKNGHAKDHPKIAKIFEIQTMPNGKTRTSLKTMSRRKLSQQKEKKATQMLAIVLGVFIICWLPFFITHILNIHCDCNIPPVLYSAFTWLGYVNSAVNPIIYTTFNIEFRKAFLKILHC
Method: as §1, §2

[3] = test system: Muscarinic Non-Selective, Central; assay: Radioligand binding assay, 3H Quinuclidinyl benzilate; parameters: species or system Wistar rat; details: significance criteria ≧50% of max stimulation or inhibition
Method: as §1, §2

[4] = concentrations as high as 20 µM

T1 sequence (P21453 whole entry): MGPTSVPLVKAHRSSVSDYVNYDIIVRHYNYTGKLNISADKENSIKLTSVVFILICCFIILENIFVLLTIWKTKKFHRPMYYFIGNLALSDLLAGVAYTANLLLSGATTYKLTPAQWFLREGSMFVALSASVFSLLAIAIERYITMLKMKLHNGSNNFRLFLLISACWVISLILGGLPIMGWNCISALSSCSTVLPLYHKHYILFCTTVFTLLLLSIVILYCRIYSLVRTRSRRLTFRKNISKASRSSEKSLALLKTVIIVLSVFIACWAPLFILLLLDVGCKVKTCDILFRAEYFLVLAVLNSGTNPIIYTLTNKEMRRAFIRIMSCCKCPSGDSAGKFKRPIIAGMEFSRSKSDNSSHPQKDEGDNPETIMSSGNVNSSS

CCOC(=O)c1c(NC(=O)NS(=O)(=O)c2ccccc2Cl)sc2c1CCCC2 [Compound 101]
IC50 (Edg-1): > 20 µM | inhibition of S1P-stimulated calcium increases, Edg-1 (Edg-1; [4]): did not inhibit | IC50 (Edg-3): > 20 µM | inhibition of S1P-stimulated calcium increases, Edg-3 (Edg-3; [4]): did not inhibit | selective inhibition of the Edg-7 receptor (FIG. 1, FIG. 2) (human Edg 7 receptors; HTC cells expressing Edg-7): specifically inhibit | IC50 (human Edg 7 receptors; HTC cells expressing human Edg 7): 1.59 µM | Fold Selectivity (human Edg 7 receptors; inhibitory selectivity for Edg-7 relative to other Edg receptors): >12.6 Fold | activity in radioligand binding assay, Adrenergic Alpha 1, non-selective [1]: no significant activity | activity in radioligand binding assay, Adrenergic Alpha 2, non-selective (Adrenergic α2): no significant activity | activity in radioligand binding assay, Calcium Channels Type L, DHP [2]: no significant activity | activity in radioligand binding assay, Dopamine D2L (Dopamine D2L): no significant activity | activity in radioligand binding assay, Muscarinic, non-selective, central [3]: no significant activity
